Source: patent US11425924B2, “Composition and method for controlled-release of amino acids” (Glanbia Nutritionals, Ltd., priority 2018, dated 2022)
Converted amounts (≈) assume the structure as drawn.

How the values were obtained:
[1] = except at very acidic pH; cited from earlier work
[2] = Zeta potential measurements; format: physicochemical; conditions: uncoated
Experimental: Zeta potential analysis was performed in on a NanoBrook ZetaPlus Zeta Plus instrument from Brookhaven Instruments.

CC(C)C[C@H](N)C(=O)O [Leucine (L-Leucine), L-Leucine]
solubility in water [1]: 24.3 mg/mL (≈ 185 mM) | surface charge [2]: positive charge
